{"source": "patent US6977261B2", "about": "“Azaisoquinoline derivatives as matrix metalloproteinase inhibitors” (Warner-Lambert Company LLC, priority 2002, dated 2005)", "biological_target": "human MMP-13 catalytic domain (hMMP-13CD) (Homo sapiens, UniProt P45452)", "assay": "Inhibition of MMP-13 catalytic domain (thiopeptolide substrate assay)", "assay_type": "biochemical", "source_text": "The assays measure the amount by which a test compound reduces the hydrolysis of a thiopeptolide substrate catalyzed by a matrix metalloproteinase enzyme. Such assays are described in detail by Ye et al., in Biochemistry, 1992;31(45):11231-11235, which is incorporated herein by reference. One such assay is described below in Biological Method 1.\nSome of the particular methods described below use the catalytic domain of the MMP-13 enzyme, namely matrix metalloproteinase-13 catalytic domain (“MMP-13CD”), rather than the corresponding full-length enzyme, MMP-13. It has been shown previously by Ye Qi-Zhuang, Hupe D., and Johnson L. (Current Medicinal Chemistry, 1996;3:407-418) that inhibitor activity against a catalytic domain of an MMP is predictive of the inhibitor activity against the respective full-length MMP enzyme.\nThiopeptolide substrates show virtually no decomposition or hydrolysis at or below neutral pH in the absence of a matrix metalloproteinase enzyme. A typical thiopeptolide substrate commonly utilized for assays is Ac-Pro-Leu-Gly-thioester-Leu-Leu-Gly-OEt. […] The change in absorbance at 405 nm is monitored on a Thermo Max microplate reader (molecular Devices, Menlo Park, Calif.) at room temperature (22° C.). […]\nSome representative compounds of Formula I have been evaluated for their ability to inhibit MMP-13. […]", "note": "pIC50: −log10 of the molar value."}
{"smiles": "O=C(O)c1ccc(Cn2ccc3ccc(C#CCn4ccnn4)cc3c2=O)cc1", "note": "[4-[1-oxo-7-(3-[1,2,3]triazol-1-ylprop-1-ynyl)-1H-isoquinolin-2-ylmethyl]benzoic acid]", "values": [{"measurement": "pIC50", "result": "< 4.30"}]}
